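Each compound was tested at five concentrations against cells in 96-well plates for 48 hours. The concentration for 50% growth inhibition is given as GI50. TGI: total growth inhibition.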 Some results are limits rather than exact numbers.

Some test systems named below: 786-0 renal; A549 NSCLC; COLO 205 colon; HCT-15 colon; HOP-62 NSCLC; HS 578T breast; OVCAR-8 ovarian; SK-MEL-2 melanoma; T-47D breast; U251 CNS.
Common to all, as to assay: NCI-60 cell line screen, 48 h

With `Cc1cc(Nc2ccc(OCc3ccccc3)cc2)nc2cc(O)ccc12`, the GI50 with 786-0 renal is 4.51 µM; in the experiment on A549 NSCLC, 5.23 µM; in the experiment with COLO 205 colon, 4.84 µM; in the experiment on HCT-15 colon, 2.16 µM; with HOP-62 NSCLC, 11.7 µM; with HS 578T breast, 10.2 µM. The GI50 was 12.4 µM in the experiment on OVCAR-8 ovarian, 11.9 µM with SK-MEL-2 melanoma, 5.93 µM in the experiment on T-47D breast and 4.54 µM in the experiment with U251 CNS. Further, the TGI with 786-0 renal turned out to be 17.2 µM; in the experiment on A549 NSCLC, 20.4 µM; in the experiment with COLO 205 colon, 17 µM; in the experiment with HCT-15 colon, 5.48 µM; in the experiment with HOP-62 NSCLC it was 26.5 µM; in the experiment on HS 578T breast, 29.2 µM. Also, the TGI with OVCAR-8 ovarian was 29.5 µM; in the experiment on SK-MEL-2 melanoma it was 30.1 µM; in the experiment on T-47D breast, 23.2 µM; with U251 CNS, 17.5 µM.
`CCCCCCCC/C=C/CCCCCCCC1=NC(C)(C)CN1CC(C)O` (centres undefined): the GI50 in the experiment on 786-0 renal is 1.71 µM; with A549 NSCLC, 1.8 µM; with COLO 205 colon, 1.76 µM; with HCT-15 colon, 1.63 µM; in the experiment on HOP-62 NSCLC, 1.83 µM; in the experiment with HS 578T breast, 1.9 µM. Further, the GI50 is 1.97 µM in the experiment on OVCAR-8 ovarian, 2.28 µM in the experiment with SK-MEL-2 melanoma, 2.03 µM with T-47D breast and 1.64 µM in the experiment on U251 CNS. The TGI was 3.16 µM in the experiment on 786-0 renal; 3.42 µM in the experiment on A549 NSCLC; 3.45 µM in the experiment on COLO 205 colon; 3.27 µM in the experiment with HCT-15 colon; 3.39 µM in the experiment with HOP-62 NSCLC; 4.62 µM with HS 578T breast. Also, the TGI with OVCAR-8 ovarian was determined as 3.9 µM; in the experiment with SK-MEL-2 melanoma, 5.21 µM; in the experiment with T-47D breast it was 4.58 µM; with U251 CNS, 3.02 µM.
In the case of `CO/C=C/C(=O)c1cc2cnc3c(=N)cc(NC(=O)C(C)C)c([nH]1)c23`, the GI50 in the experiment with 786-0 renal was 0.0981 µM; in the experiment with A549 NSCLC, 1.52 µM; in the experiment on COLO 205 colon it was 0.135 µM; with HCT-15 colon it was 0.0431 µM; in the experiment on HOP-62 NSCLC it was 0.0844 µM; with HS 578T breast, 0.0195 µM. For the same compound, the GI50 is 0.113 µM with OVCAR-8 ovarian, 0.0907 µM in the experiment on SK-MEL-2 melanoma, 0.00998 µM in the experiment on T-47D breast and 0.0889 µM in the experiment with U251 CNS. In addition, the TGI with 786-0 renal is 0.695 µM; with A549 NSCLC it was 15.1 µM; in the experiment with COLO 205 colon it was 0.869 µM; in the experiment with HCT-15 colon it was 0.99 µM; in the experiment on HOP-62 NSCLC, 1.04 µM; in the experiment on HS 578T breast, 0.188 µM. Besides, the TGI was determined as 1.02 µM with OVCAR-8 ovarian, 0.299 µM in the experiment with SK-MEL-2 melanoma, 0.0439 µM in the experiment on T-47D breast and 0.61 µM in the experiment with U251 CNS.
For the compound `Nc1ccccc1NC(=O)c1ccc(CNc2nccc(-c3cccnc3)n2)cc1`, the GI50 was 2.15 µM with 786-0 renal; 1.35 µM in the experiment with A549 NSCLC; 0.626 µM with COLO 205 colon; 2.06 µM in the experiment on HCT-15 colon; 1.34 µM in the experiment with HOP-62 NSCLC; 1.06 µM with HS 578T breast. The GI50 in the experiment with OVCAR-8 ovarian is 0.541 µM; in the experiment with SK-MEL-2 melanoma it was 0.481 µM; in the experiment on T-47D breast, 0.657 µM; with U251 CNS, 1.12 µM. The TGI is more than 47.9 µM in the experiment with 786-0 renal; more than 47.6 µM in the experiment with A549 NSCLC; 2.06 µM in the experiment with COLO 205 colon; more than 44.1 µM in the experiment on HCT-15 colon; more than 51.8 µM in the experiment on HOP-62 NSCLC; more than 100 µM with HS 578T breast. For the same compound, the figures for the TGI in the experiment with OVCAR-8 ovarian, in the experiment with SK-MEL-2 melanoma and in the experiment on T-47D breast were more than 100 µM, 3.71 µM and more than 22.8 µM, respectively.
With `CN1CCC(COc2cnc(-c3cccc(Cn4nc(-c5cccc(C#N)c5)ccc4=O)c3)nc2)CC1`, the GI50 in the experiment with 786-0 renal is 1.97 µM; in the experiment on A549 NSCLC, 3.52 µM; in the experiment with COLO 205 colon, 1.92 µM; with HCT-15 colon, 3.47 µM; with HOP-62 NSCLC, 4.24 µM; in the experiment on HS 578T breast, 4.63 µM. Also, the GI50 in the experiment with OVCAR-8 ovarian is 3.27 µM; in the experiment with SK-MEL-2 melanoma it was 6.66 µM; with T-47D breast, 2.27 µM; in the experiment with U251 CNS, 2.43 µM. The TGI in the experiment with 786-0 renal stood at 3.86 µM; in the experiment with A549 NSCLC, 14.7 µM; with COLO 205 colon, 3.68 µM; with HCT-15 colon, 15.5 µM; in the experiment on HOP-62 NSCLC, 14.2 µM; in the experiment with HS 578T breast it was 19.8 µM. In addition, the TGI in the experiment with OVCAR-8 ovarian turned out to be 12.8 µM; with SK-MEL-2 melanoma it was 15.1 µM; in the experiment with T-47D breast, 5.99 µM; in the experiment with U251 CNS, 7.68 µM.
Consider `Cc1cccc(-c2[nH]ncc2-c2ccc3ncccc3n2)n1`, for which the GI50 in the experiment with 786-0 renal is 11.1 µM; in the experiment with A549 NSCLC, 9.27 µM; in the experiment with COLO 205 colon, 6.31 µM; in the experiment on HCT-15 colon it was 9.98 µM; in the experiment on HOP-62 NSCLC it was 9.59 µM; in the experiment with HS 578T breast, more than 14.5 µM. In addition, the GI50 in the experiment with OVCAR-8 ovarian is 8.54 µM; in the experiment on SK-MEL-2 melanoma, 10.7 µM; in the experiment with T-47D breast it was 7.07 µM; in the experiment on U251 CNS, 9.54 µM. Besides, the TGI in the experiment with 786-0 renal was more than 25 µM; in the experiment on A549 NSCLC it was more than 25 µM; with COLO 205 colon, 16.7 µM; with HCT-15 colon it was more than 25 µM; in the experiment on HOP-62 NSCLC it was more than 25 µM; in the experiment with HS 578T breast, more than 25 µM. Besides, the TGI in the experiment with OVCAR-8 ovarian is more than 25 µM; in the experiment with SK-MEL-2 melanoma, more than 25 µM; with T-47D breast, more than 23.9 µM; with U251 CNS, more than 25 µM.
`CN(C)c1ccc(/C=C/c2ccnc3c(O)cccc23)cc1`: the GI50 in the experiment with 786-0 renal is 0.886 µM; in the experiment on A549 NSCLC it was 0.376 µM; with COLO 205 colon, 18.5 µM; in the experiment on HCT-15 colon, 0.335 µM; in the experiment on HOP-62 NSCLC, 0.469 µM; in the experiment on HS 578T breast, 0.85 µM. For the same compound, the GI50 with OVCAR-8 ovarian is 0.352 µM; in the experiment with SK-MEL-2 melanoma, 0.301 µM; in the experiment with T-47D breast, 0.375 µM; in the experiment with U251 CNS it was 0.338 µM. Besides, the TGI with 786-0 renal was more than 26.2 µM; in the experiment with A549 NSCLC, more than 100 µM; in the experiment with COLO 205 colon, more than 100 µM; in the experiment with HCT-15 colon, more than 100 µM; in the experiment with HOP-62 NSCLC it was more than 58.9 µM; in the experiment with HS 578T breast, more than 100 µM. The TGI with OVCAR-8 ovarian is more than 100 µM; in the experiment on SK-MEL-2 melanoma, 11 µM; with T-47D breast it was more than 100 µM; in the experiment on U251 CNS, more than 100 µM.

The values are drawn from PubChem BioAssay (NCI).
